Measurements reported in US12714714B2, “Combination therapy for treating executive function disorders” (Anaka Pharmaceuticals, Inc., priority 2021, dated 2026).
Several values for one entry are separate records, joined by “and”; a condition that tells them apart may be missing. Equal entries are not always repeated.

Columns and labels:
Severe ADHD = assay: Case study A: (Example 3); type: in vivo, human
Text: (§1) The combination of lacosamide and oxcarbazepine has been administered to three additional patients with various symptoms associated with executive function disorder. The combination of lacosamide and oxcarbazepine was successful in alleviating different symptoms of executive function disorder.

[1] = test system: children who take methylphenidate; settings: cited from earlier work
[2] = test system: patients suffering from ADHD; assay: TONI-2 nonverbal reasoning test (Example 1); type: in vivo, human
Text: (§2) Patients were monitored clinically every week, during the whole duration of the study. They were also monitored on their pedagogic condition and evolution: before any treatment, mid-term and by the end of the lacosamide monotherapy and combination treatment. In addition, the patients were monitored neuropsychologicaly through the administration of different tests, pre- and post-treatment. A basal measure of their executive capabilities was established before any treatment.
(§3) The results of neuropsychological tests for lacosamide monotherapy and lacosamide and oxcarbazepine combination therapy were evaluated.

[3] = test system: patients suffering from ADHD; assay: Clinical evolution under treatment, weekly clinical and pedagogic monitoring (Example 1); type: in vivo, human
Protocol: (§4) The effects of lacosamide monotherapy were tested in three patients (two boys; and one child) suffering from ADHD over the period of 6 months. After the period of 6 months, the treatment was discontinued for 45 days. Next, the three patients were treated with a combination of lacosamide and oxcarbazepine for a period of 3 months. The results of monotherapy and combination therapy were compared.
as §2
The treatment was delivered twice a day and went on for at least 3 months.
(§5) Initially, a dose of 50 mg/12 hrs of lacosamide was administered to every patient. Through the study, the dose of lacosamide was increased (by 100 mg per week) to […] for every patient, following clinical response (on attention capacity, sleep, tiredness, mood stability, comprehension and general cognitive improvement).
(§6) Initially, a dose of 50 mg/12 hrs of lacosamide and a dose of 300 mg/12 hrs of oxcarbazepine was administered to every patient. Through the study, the dose of lacosamide was increased (by 100 mg per week) to 200 mg/12 hrs for every patient, following clinical response (attention capacity, sleep, tiredness, mood stability, comprehension and general cognitive improvement). In response to clinical presentation of all three patients, the dose of lacosamide was decreased to 100 mg/12 hrs and maintained thereafter. The dose for oxcarbazepine was increased in week 7 to 450 mg/12 hrs for every patient, maintaining the previously reached respective doses for lacosamide.

GABA transaminase = GABA transaminase (Homo sapiens, UniProt P80404); settings: cited from earlier work
[4] = test system: AMPA, kainate, NMDA, GABAA, GABAB, dopaminergic, serotonergic, adrenergic, muscarinic or cannabinoid receptors; settings: cited from earlier work
[5] = test system: patients suffering from ADHD; assay: Conners' Continuous Performance Test CPT-2 (Example 1); type: in vivo, human
Text: as §2
The results of neuropsychological tests for lacosamide monotherapy and lacosamide and oxcarbazepine combination therapy were evaluated. […] The other patient had similar results for monotherapy and combination treatment.

[6] = test system: patients suffering from ADHD; assay: Determination of clinically effective dose, lacosamide monotherapy vs combination therapy (Example 1); type: in vivo, human; settings: for Clinically effective dose of lacosamide: in monotherapy vs in combination therapy with oxcarbazepine
Protocol: as §4, §2, §5
as §6, with “In response to clinical presentation of all three patients, the dose of lacosamide was decreased to 100 mg/12 hrs and maintained thereafter.” left out
Starting from this initial dose (50 mg/12 hs), the dose of lacosamide was adjusted to reflect clinically effective dose, based on clinical signs. Lacosamide was initially raised by 100 mg/24 hs in two takes. The highest dose of lacosamide was 400 mg/24 hs. In the combination therapy, oxcarbazepine was raised from 600 mg to 900 mg for all participants after 6 weeks, regardless of their lacosamide dosage.
The final dosage of lacosamide and oxcarbazepine was established based on patients' clinical results for executive dysfunction and the neurophysiological symptoms (e.g. hyperactivity, enuresis, and lethargy).

[7] = test system: patients suffering from ADHD; assay: Stroop test (Example 1); type: in vivo, human
Text: as §2, §3

[8] = test system: patients suffering from ADHD; assay: WCST (Example 1); type: in vivo, human
Text: as §2, §3

[9] = test system: voltage-gated sodium channels; settings: cited from earlier work
[10] = test system: potassium or calcium currents; settings: cited from earlier work
[11] = test system: reuptake of norepinephrine, dopamine, and serotonin; settings: cited from earlier work
Severe autism (Level 3) = assay: Case Study C: (Example 3); type: in vivo, human
Text: as §1

[12] = patient 001, October 2020 = lacosamide monotherapy, December 2020 = combination therapy
[13] = patient 002, October 2020 = lacosamide monotherapy, December 2020 = combination therapy
[14] = patient 003, October 2020 = after 6 months lacosamide alone, December 2020 = after 3 months combined therapy
[15] = patient 003, table: December 2020, combined therapy, text b168: monotherapy vs combined therapy

GABA transaminase, sequence (P80404 29-500, species assumed): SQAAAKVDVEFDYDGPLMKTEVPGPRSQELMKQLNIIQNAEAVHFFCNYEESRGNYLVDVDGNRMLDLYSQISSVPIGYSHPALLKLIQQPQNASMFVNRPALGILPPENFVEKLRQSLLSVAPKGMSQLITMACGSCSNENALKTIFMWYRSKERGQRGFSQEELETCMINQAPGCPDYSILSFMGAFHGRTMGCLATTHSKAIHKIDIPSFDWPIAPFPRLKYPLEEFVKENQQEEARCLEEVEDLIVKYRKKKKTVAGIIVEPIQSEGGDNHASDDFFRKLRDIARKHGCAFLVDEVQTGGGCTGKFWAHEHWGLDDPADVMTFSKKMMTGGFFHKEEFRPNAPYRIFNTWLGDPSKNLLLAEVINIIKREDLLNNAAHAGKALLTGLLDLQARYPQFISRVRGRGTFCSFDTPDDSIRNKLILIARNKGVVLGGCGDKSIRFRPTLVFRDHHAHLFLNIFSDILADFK

## Nc1nnc(-c2cccc(Cl)c2Cl)c(N)n1 [Lamotrigine]
Severe ADHD
  Neurophysiological and Neuropsychological symptoms: combined therapy. This was not accomplished
  lasting improvement in treating subject's symptoms, drugs received prior to therapy used in this study: None showed lasting improvement in treating

## COC(=O)C(c1ccccc1)C1CCCCN1 (stereo not drawn) [Methylphenidate]
[1]
  share of children who develop symptoms of obsessive-compulsive behaviour: one third
Severe ADHD
  lasting improvement in treating subject's symptoms, drugs received prior to therapy used in this study: None showed lasting improvement in treating

## CCCC(CCC)C(=O)O [Valproic Acid]
Severe ADHD
  lasting improvement in treating subject's symptoms, drugs received prior to therapy used in this study: None showed lasting improvement in treating

## COC[C@@H](NC(C)=O)C(=O)NCc1ccccc1 [lacosamide, (2R)-2-(acetylamino)-N-benzyl-3-methoxypropanamide]
[2]; Case 003, after 6 months Lacosamide monotherapy vs after combined therapy
  non-verbal reasoning capacity: 95 points
[2]; [12]
  TONI-2 Nonverbal Reasoning Ability, Level (CI): CI-111
  TONI-2 Nonverbal Reasoning Ability, Severity Range: 17/55
[2]; [13]
  TONI-2 Nonverbal Reasoning Ability, Level (CI): CI-104
  TONI-2 Nonverbal Reasoning Ability, Severity Range: 28/55
[2]; [14]
  TONI-2 Nonverbal Reasoning Ability, Level (CI): CI-95
  TONI-2 Nonverbal Reasoning Ability, Severity Range: 19/55
[3]; ADHD patients
  mood instability (aggressive behaviour towards others, deliberately contained anger, sadness): only partially regressed
[3]; Case 001
  cognitive disabilities: improved many cognitive disabilities
  dysphasia, and extreme impulsiveness: remained unchanged
[3]; Case 002
  pedagogic evolution (Comprehensive Reading): never obtained
[3]; Cases 002 and 003
  ability to speak: unaffected
  cognitive disability: improved under lacosamide alone, but the degree of the disability never really disappeared
[3]; the one of 3 ADHD patients with hyperkinesia
  hyperactivity regulation (severe hyperkinesia): did not improve
[3]; the two patients that suffered from this symptom
  enuresis episodes: partially stopped
[3]; two patients with absence of energy and tense tiredness
  lethargic situations: disappeared
GABA transaminase
  inhibition of GABA transaminase: does not inhibit
[4]
  effect on AMPA, kainate, NMDA, GABAA, GABAB or dopaminergic, serotonergic, adrenergic, muscarinic or cannabinoid receptors: does not affect
[5]; [12]
  CPT-2-c Level: 1
  CPT-2-c impulsivity indicators (Severity Range): No
  CPT-2-o Level: Clinical
  CPT-2-o Severity Range, score: 76.92%
  CPT-2-o inattention indicators: 6
  CPT-2-o indicators within limitations in surveillance: 2 indicators
[5]; patient 001, table: December 2020, combination therapy, text b159: first vs second evaluation
  CPT-2-o Actual Interpretation: Severe Impairment
[5]; [13]
  CPT-2-c Level: 2
  CPT-2-c impulsivity indicators (Severity Range): 1 impulsivity
  CPT-2-o Level: Non
  CPT-2-o Severity Range, score: 37.01%
  CPT-2-o inattention indicators: 2 inattention
[5]; [14]
  CPT-2-c Level: 2
  CPT-2-c impulsivity indicators (Severity Range): 1 impulsivity
  CPT-2-o Level: Clinical
  CPT-2-o Severity Range, score: 50%
  CPT-2-o inattention indicators: (6 inattention
[6]; 2 patients
  clinically effective dose of lacosamide in monotherapy: 600 mg per day
[6]; Patient 1
  Clinically effective dose of lacosamide: 600 mg/day
[6]; Patient 2
  Clinically effective dose of lacosamide: 600 mg/day
[6]; Patient 3
  Clinically effective dose of lacosamide: 350 mg/day
[6]; one patient
  clinically effective dose of lacosamide in monotherapy: 350 mg
[7]; [12]
  Stroop-c Level: 1
  Stroop-c Nominative capacity, Severity Range: 43/100
  Stroop-c/p Level: 1
  Stroop-c/p Resistance to Perseveration, Severity Range: 18/100
  Stroop-p Level: 2
  Stroop-p Nominative capacity, Severity Range: 51 and 51/100
[7]; patient 001, table: December 2020, combination therapy, text b160: before vs after
  Stroop-p Actual Interpretation: Slight Impairment
[7]; [13]
  Stroop-c Level: 3
  Stroop-c Nominative capacity, Severity Range: 40/100
  Stroop-c/p Level: 2
  Stroop-c/p Resistance to Perseveration, Severity Range: 30/100
  Stroop-p Level: 4
  Stroop-p Nominative capacity, Severity Range: 32/100
[7]; [14]
  Stroop-c Level: 2
  Stroop-c Nominative capacity, Severity Range: 51/100
  Stroop-c/p Level: 3
  Stroop-c/p Resistance to Perseveration, Severity Range: 21/100
  Stroop-p Level: 3
  Stroop-p Nominative capacity, Severity Range: 51/100
[8]; [12]
  WCST Cognitive flexibility, Level: 1
  WCST Cognitive flexibility, persistent errors: 24 persistent
  WCST Reasoning (Abstraction Categorization), Level: 2
  WCST Reasoning (Abstraction Categorization), categories completed: 3 categories
[8]; [13]
  WCST Cognitive flexibility, Level: 0
  WCST Cognitive flexibility, persistent errors: 5 persistent
  WCST Reasoning (Abstraction Categorization), Level: 0
  WCST Reasoning (Abstraction Categorization), categories completed: 8 categories
[8]; [14]
  WCST Cognitive flexibility, Level: 2
  WCST Cognitive flexibility, persistent errors: 23 persistent
  WCST Reasoning (Abstraction Categorization), Level: 2
  WCST Reasoning (Abstraction Categorization), categories completed: 4 categories
[8]; [15]
  WCST Cognitive flexibility, interpretation: Slight
  WCST Reasoning (Abstraction Categorization), interpretation: Slight Impairment
[9]
  fast inactivation of voltage-gated sodium channels: without affecting
  slow inactivation of voltage-gated sodium channels: enhances
[10]
  block of potassium or calcium currents: does not block
[11]
  modulation of the reuptake of neurotransmitters including norepinephrine, dopamine, and serotonin: does not modulate

## NC(=O)N1c2ccccc2CC(=O)c2ccccc21 [oxcarbazepine, 5-oxo-6H-benzo[b][1]benzazepine-11-carboxamide]
Severe autism (Level 3)
  aggressive behavior and lack of interactivity with other members of the household: attention. They maintained aggressive
  delivery of the desired therapeutic result: Oxcarbazepine alone was not sufficient to
  hyperkinesia and impulsiveness: Minor improvement to subject's hyper-
  sleeping pattern: instability remained in sleeping pattern
  way they behaved during awake moments, quality of their day's attention: not approve in the way they behaved during
